Experimental findings from US11186627B2 (priority 2013, dated 2021) are described below.

The test system of assay [1] is ANN/1203/04 (H5N1) highly pathogenic avian influenza virus. Also noted: species or system ferret. The settings on record: in vivo, 25 mg/kg.
Assay [2] has as its system A/California/7/09 (H1N1) (H1-CA09). The settings on record: mouse, in vivo.

“And” between values parts separate entries of the source, which are not always exact repeats. Identical values can stand only once.

Consider `CCOC(=O)C1=C[C@@H](OC(CC)CC)[C@H](NC(C)=O)[C@@H](N)C1` [oseltamivir], for which, in assay [1], the “mean day of death” value is 12 and 9; the survival rate came out at 100%. In addition, the survival result in assay [2] is given as “succumbed to the infection”.
